Measurements reported in ChEMBL document CHEMBL1201862, “PubChem BioAssay data set” (2004).
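Compound exposure: 48 hours, 5 concentrations, 96-well plates. GI50 = concentration required for 50% inhibition of growth.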 Active and inactive are the calls of the source. No stated cut-off is given here; in the data, active = GI50 up to about 1.1 µM and inactive = higher.

Tests used:
Experiment in all cases: inhibition of tumour cell growth, NCI panel, 48 h
[1] = test system: IGROV-1
[2] = test system: OVCAR-8
[3] = test system: NCI-H23
[4] = test system: LOX IMVI
[5] = test system: T47D
[6] = test system: SF-539
[7] = test system: M14
[8] = test system: NCI-H226
[9] = test system: MDA-N
[10] = test system: MDA-MB-435
[11] = test system: HT-29
[12] = test system: OVCAR-4
[13] = test system: NCI-H460
[14] = test system: MDA-MB-231
[15] = test system: CCRF-CEM
[16] = test system: UACC-62
[17] = test system: UO-31
[18] = test system: HL-60
[19] = test system: EKVX
[20] = test system: MCF7
[21] = test system: A549
[22] = test system: HCT-15
[23] = test system: NCI-H522
[24] = test system: PC-3
[25] = test system: MOLT-4
[26] = test system: SK-MEL-28
[27] = test system: HCC 2998
[28] = test system: U-251
[29] = test system: COLO 205
[30] = test system: SW-620
[31] = test system: DU-145
[32] = test system: Hs-578T
[33] = test system: OVCAR-5
[34] = test system: SR
[35] = test system: SNB-75
[36] = test system: HOP-62
[37] = test system: K562
[38] = test system: SNB-19
[39] = test system: A498
[40] = test system: KM12
[41] = test system: NCI/ADR-RES
[42] = test system: OVCAR-3
[43] = test system: RXF 393
[44] = test system: ACHN
[45] = test system: SF-268
[46] = test system: Malme-3M
[47] = test system: RPMI-8226
[48] = test system: SF-295
[49] = test system: SK-MEL-5
[50] = test system: TK-10
[51] = test system: CAKI-1
[52] = test system: SK-OV-3
[53] = test system: HCT-116
[54] = test system: SK-MEL-2
[55] = test system: BT-549
[56] = test system: HOP-92
[57] = test system: 786-0
[58] = test system: SN12C
[59] = test system: UACC-257

For c1ccc2c(CCNC3=NCCO3)cccc2c1, the GI50 [1] was > 10 µM (inactive), the GI50 [2] was > 10 µM (inactive) and the GI50 [3] was > 10 µM (inactive). For the same molecule, the GI50 [4] was > 10 µM (inactive), the GI50 [5] was > 10 µM (inactive) and the GI50 [6] was > 10 µM (inactive). For the same molecule, the GI50 [7] was > 10 µM (inactive), the GI50 [8] was > 10 µM (inactive) and the GI50 [9] was > 10 µM (inactive). For the same molecule, the GI50 [10] was > 10 µM (inactive), the GI50 [11] was > 10 µM (inactive) and the GI50 [12] was > 10 µM (inactive). The GI50 [13] was > 10 µM (inactive), the GI50 [14] was > 10 µM (inactive) and the GI50 [15] was > 10 µM (inactive). For the same molecule, the GI50 [16] was > 10 µM (inactive), the GI50 [17] was 4.26 µM (inactive) and the GI50 [18] was > 10 µM (inactive). For the same molecule, the GI50 [19] was > 10 µM (inactive), the GI50 [20] was > 10 µM (inactive) and the GI50 [21] was > 10 µM (inactive). The GI50 [22] was greater than 10 µM, the GI50 [23] was > 10 µM (inactive) and the GI50 [24] was > 10 µM (inactive). The GI50 [25] was > 10 µM (inactive), the GI50 [26] was > 10 µM (inactive) and the GI50 [27] was > 10 µM (inactive). For the same molecule, the GI50 [28] was > 10 µM (inactive), the GI50 [29] was > 10 µM (inactive) and the GI50 [30] was > 10 µM (inactive). For the same molecule, the GI50 [31] was > 10 µM (inactive), the GI50 [32] was > 10 µM (inactive) and the GI50 [33] was > 10 µM (inactive). For the same molecule, the GI50 [34] was > 10 µM (inactive), the GI50 [35] was > 10 µM (inactive) and the GI50 [36] was > 10 µM (inactive). For the same molecule, the GI50 [37] was > 10 µM (inactive), the GI50 [38] was > 10 µM (inactive) and the GI50 [39] was > 10 µM (inactive). The GI50 [40] was > 10 µM (inactive), the GI50 [41] was > 10 µM (inactive) and the GI50 [42] was > 10 µM (inactive). The GI50 [43] was > 10 µM (inactive), the GI50 [44] was > 10 µM (inactive) and the GI50 [45] was > 10 µM (inactive). For the same molecule, the GI50 [46] was > 10 µM (inactive), the GI50 [47] was > 10 µM (inactive) and the GI50 [48] was > 10 µM (inactive). For the same molecule, the GI50 [49] was > 10 µM (inactive), the GI50 [50] was > 10 µM (inactive) and the GI50 [51] was > 10 µM (inactive). For the same molecule, the GI50 [52] was > 10 µM (inactive), the GI50 [53] was > 10 µM (inactive) and the GI50 [54] was > 10 µM (inactive).
N[C@H]1CCN(c2c(F)cc3c(=O)c(C(=O)O)cn4c3c2Oc2cc3c(ccc5ccccc53)cc2-4)C1 was tested, and the GI50 [1] was 2.59 µM (inactive), the GI50 [2] was 2.96 µM (inactive) and the GI50 [3] was 4.83 µM (inactive). For the same molecule, the GI50 [4] was 3.08 µM (inactive), the GI50 [6] was 1.7 µM (inactive) and the GI50 [7] was 4.68 µM (inactive). For the same molecule, the GI50 [8] was 2.58 µM (inactive), the GI50 [9] was 3.03 µM (inactive) and the GI50 [10] was 3.88 µM (inactive). The GI50 [55] was 6.46 µM (inactive), the GI50 [11] was 3.08 µM (inactive) and the GI50 [12] was 5.25 µM (inactive). The GI50 [13] was 1.94 µM (inactive), the GI50 [14] was 0.014 µM (active) and the GI50 [16] was 6.14 µM (inactive). For the same molecule, the GI50 [56] was 2.59 µM (inactive), the GI50 [57] was 2.88 µM (inactive) and the GI50 [17] was 4.79 µM (inactive). For the same molecule, the GI50 [18] was 3.79 µM (inactive), the GI50 [19] was 3.65 µM (inactive) and the GI50 [20] was 2.63 µM (inactive). For the same molecule, the GI50 [21] was 3.87 µM (inactive), the GI50 [58] was 3.23 µM (inactive) and the GI50 [22] was 3.98 µM. The GI50 [23] was 4 µM (inactive), the GI50 [24] was 2.17 µM (inactive) and the GI50 [25] was 1.45 µM (inactive). The GI50 [27] was 1.99 µM (inactive), the GI50 [28] was 1.39 µM (inactive) and the GI50 [29] was 2.75 µM (inactive). The GI50 [30] was 3.27 µM (inactive), the GI50 [31] was 4.05 µM (inactive) and the GI50 [33] was 11 µM (inactive). For the same molecule, the GI50 [34] was 2.52 µM (inactive), the GI50 [36] was 4.06 µM (inactive) and the GI50 [37] was 2.82 µM (inactive). For the same molecule, the GI50 [38] was 5.81 µM (inactive), the GI50 [39] was 3.56 µM (inactive) and the GI50 [40] was 3.49 µM (inactive). The GI50 [41] was 8.17 µM (inactive), the GI50 [42] was 4.48 µM (inactive) and the GI50 [43] was 6.41 µM (inactive). For the same molecule, the GI50 [44] was 2.32 µM (inactive), the GI50 [46] was 4.43 µM (inactive) and the GI50 [59] was 4.9 µM (inactive). The GI50 [47] was 1.58 µM (inactive), the GI50 [48] was 2.98 µM (inactive) and the GI50 [49] was 1.87 µM (inactive). For the same molecule, the GI50 [50] was 4.44 µM (inactive), the GI50 [51] was 3.6 µM (inactive) and the GI50 [52] was 5.61 µM (inactive). The GI50 [53] was 2.87 µM (inactive) and the GI50 [54] was 2.96 µM (inactive).
In the case of Cc1cc(C2(O)C=C(C(C)(C)C)C(=O)C(C(C)(C)C)=C2)c(C)cc1C1(O)C=C(C(C)(C)C)C(=O)C(C(C)(C)C)=C1, the GI50 [1] is reported as > 100 µM (inactive), the GI50 [2] is reported as > 100 µM (inactive) and the GI50 [3] is reported as > 100 µM (inactive). The GI50 [4] was > 100 µM (inactive), the GI50 [5] was > 100 µM (inactive) and the GI50 [6] was > 100 µM (inactive). For the same molecule, the GI50 [7] was > 100 µM (inactive), the GI50 [8] was > 100 µM (inactive) and the GI50 [9] was > 100 µM (inactive). The GI50 [55] was > 100 µM (inactive), the GI50 [11] was > 100 µM (inactive) and the GI50 [12] was > 100 µM (inactive). For the same molecule, the GI50 [14] was > 100 µM (inactive), the GI50 [15] was > 100 µM (inactive) and the GI50 [16] was > 100 µM (inactive). The GI50 [57] was > 100 µM (inactive), the GI50 [17] was > 100 µM (inactive) and the GI50 [18] was > 100 µM (inactive). For the same molecule, the GI50 [19] was > 100 µM (inactive), the GI50 [20] was > 100 µM (inactive) and the GI50 [21] was > 100 µM (inactive). For the same molecule, the GI50 [58] was > 100 µM (inactive), the GI50 [22] was greater than 100 µM and the GI50 [23] was > 100 µM (inactive). For the same molecule, the GI50 [24] was > 100 µM (inactive), the GI50 [25] was > 100 µM (inactive) and the GI50 [26] was > 100 µM (inactive). For the same molecule, the GI50 [28] was > 100 µM (inactive), the GI50 [29] was > 100 µM (inactive) and the GI50 [30] was > 100 µM (inactive). For the same molecule, the GI50 [31] was > 100 µM (inactive), the GI50 [33] was > 100 µM (inactive) and the GI50 [34] was 17.2 µM (inactive). The GI50 [35] was > 100 µM (inactive), the GI50 [36] was > 100 µM (inactive) and the GI50 [37] was > 100 µM (inactive). For the same molecule, the GI50 [38] was > 100 µM (inactive), the GI50 [40] was > 100 µM (inactive) and the GI50 [41] was > 100 µM (inactive). For the same molecule, the GI50 [44] was > 100 µM (inactive), the GI50 [45] was > 100 µM (inactive) and the GI50 [46] was > 100 µM (inactive). The GI50 [59] was > 100 µM (inactive), the GI50 [47] was > 100 µM (inactive) and the GI50 [48] was > 100 µM (inactive). For the same molecule, the GI50 [49] was > 100 µM (inactive), the GI50 [50] was > 100 µM (inactive) and the GI50 [51] was > 100 µM (inactive). The GI50 [52] was > 100 µM (inactive), the GI50 [53] was > 100 µM (inactive) and the GI50 [54] was > 100 µM (inactive).
